The NIST ThermoML archive (doi:10.1021/je100832h)

Experiments:
[1] = xn = mol fraction of the nth substance listed; settings: 101.32 kPa, Liquid, Vibrating tube method
[2] = excess molar enthalpy (molar enthalpy of mixing); xn = mol fraction of the nth substance listed; settings: 291.15 K, 101 kPa, Liquid, Calvet calorimetry

CCOC(C)=O [ethyl acetate] + CCCCCCC
[1]
Settings	mass density [kg/m3]
291.15 K, x1 = 0.0161	687.34
291.15 K, x1 = 0.0572	692.44
291.15 K, x1 = 0.1159	700.33
291.15 K, x1 = 0.2057	713.27
291.15 K, x1 = 0.2894	726.55
291.15 K, x1 = 0.3673	740
291.15 K, x1 = 0.4396	753.43
291.15 K, x1 = 0.5126	768.17
291.15 K, x1 = 0.5792	782.54
291.15 K, x1 = 0.6414	796.91
291.15 K, x1 = 0.7006	811.5
291.15 K, x1 = 0.7555	825.89
291.15 K, x1 = 0.8141	842.35
291.15 K, x1 = 0.8631	856.84
291.15 K, x1 = 0.9105	872
291.15 K, x1 = 0.9718	892.61
291.15 K, x1 = 1	902.88
298.15 K, x1 = 0.0409	684.35
298.15 K, x1 = 0.0568	686.42
298.15 K, x1 = 0.1196	694.72
298.15 K, x1 = 0.1493	698.85
298.15 K, x1 = 0.2079	707.39
298.15 K, x1 = 0.2587	715.2
298.15 K, x1 = 0.2981	721.51
298.15 K, x1 = 0.3171	724.7
298.15 K, x1 = 0.3703	733.9
298.15 K, x1 = 0.4203	743.04
298.15 K, x1 = 0.4911	756.8
298.15 K, x1 = 0.5587	770.85
298.15 K, x1 = 0.6169	783.73
298.15 K, x1 = 0.6668	795.46
298.15 K, x1 = 0.727	810.54
298.15 K, x1 = 0.778	824.17
298.15 K, x1 = 0.8302	839.02
298.15 K, x1 = 0.8787	853.8
298.15 K, x1 = 0.9206	867.23
298.15 K, x1 = 0.9879	890.2
298.15 K, x1 = 1	894.4
318.15 K, x1 = 0.053	668.2
318.15 K, x1 = 0.0902	672.9
318.15 K, x1 = 0.1685	683.15
318.15 K, x1 = 0.2326	692.18
318.15 K, x1 = 0.2439	693.85
318.15 K, x1 = 0.2981	702.14
318.15 K, x1 = 0.3991	719.02
318.15 K, x1 = 0.4184	722.43
318.15 K, x1 = 0.4793	733.7
318.15 K, x1 = 0.528	743.25
318.15 K, x1 = 0.5785	753.7
318.15 K, x1 = 0.6277	764.5
318.15 K, x1 = 0.6774	775.92
318.15 K, x1 = 0.7248	787.48
318.15 K, x1 = 0.7652	797.95
318.15 K, x1 = 0.7914	804.97
318.15 K, x1 = 0.8486	821.19
318.15 K, x1 = 0.9067	838.76
318.15 K, x1 = 0.9554	854.25
318.15 K, x1 = 1	869.6
328.15 K, x1 = 0.0084	654.45
328.15 K, x1 = 0.1044	665.69
328.15 K, x1 = 0.1911	676.99
328.15 K, x1 = 0.2817	690.09
328.15 K, x1 = 0.3479	700.46
328.15 K, x1 = 0.423	713.16
328.15 K, x1 = 0.488	725.11
328.15 K, x1 = 0.5492	737.13
328.15 K, x1 = 0.621	752.34
328.15 K, x1 = 0.6655	762.36
328.15 K, x1 = 0.7209	775.45
328.15 K, x1 = 0.7755	789.39
328.15 K, x1 = 0.8274	803.37
328.15 K, x1 = 0.8717	815.94
328.15 K, x1 = 0.9217	831.14
328.15 K, x1 = 0.9731	847.9
328.15 K, x1 = 1	857.17

[2]
Settings	excess molar enthalpy [kcal/mol]
x1 = 0.0704	0.107
x1 = 0.1554	0.198
x1 = 0.2363	0.272
x1 = 0.3039	0.323
x1 = 0.3738	0.358
x1 = 0.4354	0.375
x1 = 0.4887	0.379
x1 = 0.5306	0.376
x1 = 0.5794	0.367
x1 = 0.6196	0.355
x1 = 0.6682	0.335
x1 = 0.7293	0.299
x1 = 0.7913	0.256
x1 = 0.8405	0.204
x1 = 0.9015	0.137
x1 = 0.9556	0.0667
